The text below walks through data of article PMC8668183 (Biomedicine & Pharmacotherapy, 2021).

Data set [1] has as its system SARS-CoV-2. Particulars: human lung cells; cited from earlier work.
The subject of data set [2] is SARS-CoV-2. The following applies: human prostate cells; cited from earlier work.
The subject of data set [3] is SARS-CoV-2. Particulars: cited from earlier work.
A further data set concerns the target CYP2C9 (Homo sapiens, UniProt P11712). Nature of the data set: Fluorometric CYP2C9 activity assay in human liver microsomes. It counts as in vitro ADME. Particulars: reference inhibitor at 60 µM, human hepatic microsomes. For orientation: Microsomes from liver hold many membrane-bound enzymes, among them those of drug oxidation.
A further data set deals with T1, CYP1A2 (Homo sapiens, UniProt P05177).
T1 sequence (P05177 1-516): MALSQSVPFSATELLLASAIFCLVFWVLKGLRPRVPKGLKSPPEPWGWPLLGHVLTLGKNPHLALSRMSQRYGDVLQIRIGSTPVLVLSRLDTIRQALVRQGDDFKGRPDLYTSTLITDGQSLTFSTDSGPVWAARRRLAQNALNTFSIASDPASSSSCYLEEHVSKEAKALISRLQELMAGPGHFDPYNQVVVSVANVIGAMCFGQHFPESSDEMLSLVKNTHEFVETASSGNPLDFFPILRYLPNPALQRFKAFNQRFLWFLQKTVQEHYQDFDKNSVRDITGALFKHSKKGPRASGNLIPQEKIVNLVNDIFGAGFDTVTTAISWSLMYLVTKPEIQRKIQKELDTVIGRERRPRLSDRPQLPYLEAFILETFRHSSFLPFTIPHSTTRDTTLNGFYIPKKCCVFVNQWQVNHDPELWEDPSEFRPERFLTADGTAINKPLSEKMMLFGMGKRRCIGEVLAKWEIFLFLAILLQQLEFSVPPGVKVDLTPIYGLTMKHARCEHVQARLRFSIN
The data set is described as follows: Fluorometric CYP1A2 activity assay in human liver microsomes. It counts as in vitro ADME. Particulars: reference inhibitor at 6 µM, human hepatic microsomes.

Structures can show the parent of a compound that is named as a salt. Where two headings read alike, the source gives them in different places.

Chain of CYP2C9 (P11712 whole entry): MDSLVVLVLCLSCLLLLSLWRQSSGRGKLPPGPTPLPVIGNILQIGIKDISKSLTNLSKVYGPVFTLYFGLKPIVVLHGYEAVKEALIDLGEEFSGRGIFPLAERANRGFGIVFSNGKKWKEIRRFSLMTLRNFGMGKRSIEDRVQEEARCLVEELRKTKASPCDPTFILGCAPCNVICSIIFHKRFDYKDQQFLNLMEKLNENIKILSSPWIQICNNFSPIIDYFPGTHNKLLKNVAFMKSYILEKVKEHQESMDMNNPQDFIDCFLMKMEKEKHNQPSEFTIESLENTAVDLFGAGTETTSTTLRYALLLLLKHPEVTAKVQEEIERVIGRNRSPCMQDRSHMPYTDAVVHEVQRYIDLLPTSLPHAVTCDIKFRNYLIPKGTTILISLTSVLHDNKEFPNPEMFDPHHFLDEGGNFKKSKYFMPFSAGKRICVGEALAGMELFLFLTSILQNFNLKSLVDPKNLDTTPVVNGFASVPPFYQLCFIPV

In the case of `CNC(=O)c1ccc(N2C(=S)N(c3ccc(C#N)c(C(F)(F)F)c3)C(=O)C2(C)C)cc1F` [enzalutamide], the “SARS-CoV-2 infection” value in the data set with SARS-CoV-2 [1] was “not in human lung cells”; with SARS-CoV-2 [2], “suppressed mainly in human prostate cells”.

Take `N=C(N)c1ccc2cc(OC(=O)c3ccc(N=C(N)N)cc3)ccc2c1` [nafamostat mesylate]: the “S protein-mediated fusion and SARS-CoV-2 entry into Calu-3 cells” value with SARS-CoV-2 [3] is reported as “could block successfully”.

`O=C(O)COc1ccc(C(=O)c2cccs2)c(Cl)c1Cl` [tienilic acid]: the “effect on CYP2C9 activity” value at CYP2C9 is reported as “inhibited”.

On to `O=c1cc(-c2ccccc2)oc2c1ccc1ccccc12` [α-naphthoflavone], for which the “effect on CYP1A2 activity” value on CYP1A2 was “suppressed significantly”.
